Reference: the NIST ThermoML archive (doi:10.1021/acs.jced.9b00283)

Assay: xn = mol fraction of the nth substance listed
Settings: 100 kPa, Liquid, Pycnometric method

OCCCCO [1,4-butanediol] + CCn1cc[n+](C)c1.F[B-](F)(F)F
Settings	molar volume [m3/mol]
298.15 K, x1 = 0.19	0.0001368
298.15 K, x1 = 0.978	9.18e-05
303.15 K, x1 = 0.24	0.0001346
303.15 K, x1 = 0.962	9.26e-05
308.15 K, x1 = 0.251	0.0001345
308.15 K, x1 = 0.957	9.33e-05
313.15 K, x1 = 0.326	0.0001286
313.15 K, x1 = 0.944	9.04e-05

OCCCCO [1,4-butanediol] + CCn1cc[n+](C)c1.O=S(=O)([N-]S(=O)(=O)C(F)(F)F)C(F)(F)F
Settings	molar volume [m3/mol]
298.15 K, x1 = 0.177	0.0002253
298.15 K, x1 = 0.971	9.23e-05
303.15 K, x1 = 0.189	0.0002241
303.15 K, x1 = 0.968	9.31e-05
308.15 K, x1 = 0.217	0.00022
308.15 K, x1 = 0.962	9.36e-05
313.15 K, x1 = 0.233	0.0002181
313.15 K, x1 = 0.958	9.29e-05

OCCCCCO [1,5-pentanediol] + CCn1cc[n+](C)c1.F[B-](F)(F)F
Settings	molar volume [m3/mol]
303.15 K, x1 = 0.129	0.0001423
303.15 K, x1 = 0.982	0.0001069
308.15 K, x1 = 0.151	0.0001416
308.15 K, x1 = 0.977	0.0001075
313.15 K, x1 = 0.183	0.0001412
313.15 K, x1 = 0.97	0.0001062
318.15 K, x1 = 0.231	0.0001381
318.15 K, x1 = 0.969	0.0001064

OCCCCCO [1,5-pentanediol] + CCn1cc[n+](C)c1.O=S(=O)([N-]S(=O)(=O)C(F)(F)F)C(F)(F)F
Settings	molar volume [m3/mol]
298.15 K, x1 = 0.142	0.0002297
298.15 K, x1 = 0.995	0.0001075
303.15 K, x1 = 0.16	0.0002253
303.15 K, x1 = 0.992	0.0001086
308.15 K, x1 = 0.175	0.0002251
308.15 K, x1 = 0.987	0.0001088
313.15 K, x1 = 0.193	0.0002239
313.15 K, x1 = 0.982	0.0001095

OCCCO [propan-1,3-diol] + CCn1cc[n+](C)c1.O=S(=O)([N-]S(=O)(=O)C(F)(F)F)C(F)(F)F
Settings	molar volume [m3/mol]
298.15 K, x1 = 0.208	0.0002153
298.15 K, x1 = 0.977	7.48e-05
303.15 K, x1 = 0.226	0.0002124
303.15 K, x1 = 0.974	7.55e-05
308.15 K, x1 = 0.234	0.0002114
308.15 K, x1 = 0.971	7.61e-05
313.15 K, x1 = 0.259	0.0002063
313.15 K, x1 = 0.971	7.6e-05
